The nature of the assay: Inhibition of baker's yeast alpha-glucosidase preincubated for 15 to 20 mins followed by p-nitrophenyl-alpha-D-glucopyranoside substrate addition measured after 45 to 60 mins by spectrophotometric method. Details: species or system Saccharomyces cerevisiae.

On to `O=C1CC(c2ccc(Br)cc2)Nc2ccccc21` (configuration not stated), for which the IC50 (usually the point on the concentration scale where inhibition reaches its midpoint) is reported as “Nd(Insoluble)”.
As for `COc1ccc(C2CC(=O)c3ccccc3N2)cc1` (configuration not stated), the IC50 (read-out: IC50) was determined as 303 µM.
As to `O=C1CC(c2ccoc2)Nc2ccccc21` (configuration not stated), under “read-out: IC50”, the concentration for half-maximal inhibition (IC50) was 352 µM.
On to `O=C1CC(c2ccc(C(F)(F)F)cc2)Nc2ccccc21` (configuration not stated), for which the half-maximal inhibitory concentration (IC50) (read-out: IC50) came to 53.5 µM.
For the compound `O=C1CC(C2CC2)Nc2ccccc21` (configuration not stated), for the setting “read-out: IC50”, the IC50 was determined as 284 µM.
`O=C1CC(C2CCOC2)Nc2ccccc21` (configuration not stated): where the note is “read-out: IC50”, the IC50 is 867 µM.
Still for that read-out and setting: then `O=C1CC(c2ccsc2)Nc2ccccc21` (configuration not stated), with 72.4 µM; and `O=C1CC(C2CCCCC2)Nc2ccccc21` (configuration not stated), with 494 µM.
Still for that read-out and setting: then `O=C1CC(c2cccs2)Nc2ccccc21` (configuration not stated), with 382 µM; and `CCCCC1CC(=O)c2ccc(F)cc2N1` (configuration not stated), with 134 µM.
On the same count and under the same terms, under `O=C1CC(c2ccco2)Nc2ccccc21` (configuration not stated) stands 487 µM; under `O=C1CC(C2CCCO2)Nc2ccccc21` (configuration not stated), 667 µM; under `O=C1CC(c2ccncc2)Nc2ccccc21` (configuration not stated), 773 µM.
Turning to `O=C1CC(c2ccc(F)cc2F)Nc2ccccc21` (configuration not stated), for the setting “read-out: IC50”, the IC50 was 211 µM.
Still for that read-out and setting: under `Cc1ccc(C2CC(=O)c3ccccc3N2)cc1C` (configuration not stated) stands 606 µM.
Turning to `CCCC1CC(=O)c2ccccc2N1` (configuration not stated), the IC50 (read-out: IC50) was 190 µM.
Consider `CCCCC1CC(=O)c2cc(OC)ccc2N1` (configuration not stated), for which, where the note is “read-out: IC50”, the half-inhibitory concentration (IC50) came out at 683 µM.
Turning to `CCC1CC(=O)c2ccccc2N1` (configuration not stated), the IC50 (read-out: IC50) is 272 µM.
Consider `C[C@H]1O[C@H](O[C@H]2[C@H](O)[C@@H](O)[C@@H](O[C@H]3[C@H](O)[C@@H](O)C(O)O[C@@H]3CO)O[C@@H]2CO)[C@H](O)[C@@H](O)[C@@H]1N[C@H]1C=C(CO)[C@@H](O)[C@H](O)[C@H]1O` (some centres not stated) [ACARBOSE], for which the half-inhibitory concentration (IC50) (read-out: IC50) was 360 µM.
Turning to `O=C1CC(c2ccccc2)Nc2ccccc21` (configuration not stated) [Aza-flavanone], the IC50 (read-out: IC50) worked out at 686 µM.
`OCCN1C[C@H](O)[C@@H](O)[C@H](O)[C@H]1CO` [MIGLITOL]: the IC50 (read-out: IC50) is 462 µM.
As to `OCC(CO)N[C@H]1C[C@](O)(CO)[C@@H](O)[C@H](O)[C@H]1O` [VOGLIBOSE], the IC50 (read-out: IC50) was found to be 325 µM.

Source of the values: ChEMBL document CHEMBL4261528, “Synthesis, molecular modeling and biological evaluation of aza-flavanones as α-glucosidase inhibitors” (Medchemcomm, 2017).
